Molecules are shown by their SMILES.

For data set [1], the system named is MDAH2774 (ovarian cancer). Briefly: Clonogenicity assay, compound in combination with irradiation, MDAH2774. It counts as cell-based, human. The protocol: (§1) Radiotherapy is a major therapeutic modality in treating many types of cancers including human prostate and ovarian cancers. The anti-proliferative activity of compounds within the scope of the invention was tested in combination with irradiation treatment.
(§2) Cells DU145 (prostate cancer) and MDAH2774 (ovarian cancer) were obtained from ATCC; growth media MEM medium (Mediatech, Herndon, Va.) was supplemented with 8% FBS, 5 U/ml penicillin and 50 μg/ml Streptomycin (Hyclone, Logan, Utah), 2 mM L-glutamine (Hyclone, Logan, Utah), 25 mM HEPES (Hyclone, Logan, Utah); McCoy's 5A medium (Mediatech, Herndon, Va.) was supplemented with 8% FBS, 50 U/ml penicillin and 50 μg/ml-Strep (Hyclone, Logan, Utah) and Glutamine 2 mM L-glutamine (Hyclone, Logan, Utah), ^137CS γ-source was a Gammacell 1000 Elite irradiator (MDS Nordion, Kanata, Ontario, Canada); DMSO; 1× PBS; Methanol; 0.25% Crystal Violet, and 60 mm tissue culture dishes.
(§3) DU145 or MDAH2774 cells at desired cell number were plated in early log phase on 60 mm dishes in MEM medium supplemented with 8% FBS, Penicillin, Streptomycin, L-glutamine, or McCoys medium supplemented with 8% FBS, Penicillin, Streptomycin and Glutamine, respectively. Cells were plated in triplicate. […] The final concentrations of the compound in the cell media ranged from 1 to 100 nM. After 24 h incubation with the test compound plates were split in two groups of equal size. The plates in the first group were irradiated with 7.3 Gy (plates containing DU145 cells) or 5.4 Gy (plates containing MDAH2774 cells) using a ^137Cs γ-source (dose rate 3.32 Gy/min). The second group of plates were treated identically but not irradiated. Cells were incubated for an additional 24 hours in medium containing test compound. Then, the cells were replenished with fresh compound-free identical medium and allowed to grow for an additional 11 days. Cells were then fixed with methanol, stained with 0.25% crystal violet, and the clones containing more than 50 cells were counted.
(§4) The activity appeared to be concentration-dependent with more dramatic effects achieved at 100 nM compound with radiation in either cell line.

In a further data set the test system is LoVo. The experiment in a line: Flow cytometry and trypan blue exclusion cell counting, LoVo. It counts as cell-based, human.
In data set [2] the test system is human chronic myelogenous leukemia (CML) K562 cell line. The experiment in a line: Trypan blue exclusion cell counting assay in leukemia cells. It counts as cell-based. The method, then:
The effect of compounds of the invention on cell proliferation in leukemia cells, in particular, the human chronic myelogenous leukemia (CML) K562 cell line, was tested using flow cytometry and trypan blue exclusion cell counting assays.
The human chronic myelogenous leukemia (CML) K562 cell line was obtained from American Type Culture Collection (ATCC) and cultured under specified conditions, as provided by ATCC. A Becton Dickinson FACSCalibur instrument was used for flow cytometry analyses. A CycleTEST PLUS DNA Reagent Kit (Cat. No. 340242, Becton Dickinson) was used in the study for cell staining. The standard operating procedure and a protocol for CycleTEST PLUS DNA Reagent Kit from Becton Dickinson have been followed to carry out the study. Briefly, flow cytometric analysis of the differentially stained CML K562 cell line was used to estimate the DNA content and cell cycle phase distribution of cells treated with various concentrations of the compound for 24 hours. […] Data analysis was carried out using the ModFit LT cell cycle data analysis program (Verity Software House, Topsham, Me. 04086, www.vsh.com). Cell viability test was performed using a Trypan Blue exclusion assay (Trypan Blue from Sigma, Cat No. T 0776) following procedures known to those skilled in the art.

Another data set relates to H460. Briefly: Flow cytometry and trypan blue exclusion cell counting, H460. It counts as cell-based, human.
In another data set the test system is DU145 (prostate cancer). The experiment in a line: Clonogenicity assay, compound in combination with irradiation, DU145. The format is cell-based, human. The method, then:
as §1, §2, §3, §4

Data set [3] relates to Human tumor cell lines (LoVo, MDA-MB-231, H460 etc.). The experiment in a line: Anti-tumor assay, human tumor nude mouse xenograft model. The format is in vivo, athymic nude mice. Particulars: 50 mg/kg. The method, then:
The anti-tumor activity of experimental compounds was evaluated in vivo using the human tumor nude mouse xenograft model. All procedures involving animals were conducted in an animal facility fully accredited by the American Association for Assessment and Accreditation of Laboratory Animal Care (AAALAC) and in accordance with The Guide for the Care and Use of Laboratory Animals (NIH). Protocols were approved by the RWJ-PRI Internal Animal Care and Use Committee (IACUC).
Human tumor cell lines (LoVo, MDA-MB-231, H460 etc.) were obtained from American Type Culture Collection and cultured under specified conditions required for each cell type. Female athymic nude mice (Charles River nu/nu) were injected subcutaneously in the inguinal region of the thigh with 1–2×10^6 tumor cells in 0.1 mL volume on day zero. For growth delay studies, mice were dosed orally with vehicle (control group) or experimental drugs beginning three days after tumor cell inoculation. Compounds were prepared in 0.5% methylcellulose and treatments were administered bid for 30–35 consecutive days. Tumor growth was measured twice a week using calipers for the duration of the treatment. Tumor areas (mm^2) were calculated as a product of length×width. […] Differences between treated and control mice were analyzed statistically by ANOVA and Dunnett's t-test. […]

Data set [4] can be described thus: Rat pharmacokinetics study of pro-drugs, conversion to parent monitored by HPLC/MS/MS. It counts as in vivo. Particulars: po, rat plasma, 10 mg/kg orally, read-out: Fast PK (0.5 h) conc. Prodrug. The method, then: Furthermore, pro-drugs have been administered orally to rats (10 mg/kg) in pharmacokinetics studies, and the conversion of pro-drugs to the parent compound was montitored by HPLC/MS/MS analyses. Parent compound or the glucuronide conjugates of the parent compound was detected in the rat plasma from the pharmacokinetics studies (Table G).

Turning to `COc1cc2c(cc1OC)-c1n[nH]c(Nc3cccc(F)c3)c1C2` [Compound 14, (3-Fluoro-phenyl)-(6,7-dimethoxy-2,4-dihydro-indeno[1,2-c]pyrazol-3-yl)-amine], in data set [1] (5.4 Gy, compound 1 to 100 nM), the “colony formation inhibition with versus without radiation, MDAH2774” value is given as “the inhibitory effect was greater with radiation”. Moreover, in data set [1] (in the presence or absence of radiation (5.4 Gy)), the “concentration from which marked inhibitory activity against colony formation was shown, MDAH2774” value is listed as no less than 30 nM. In addition, the “No. of MDAH2774 Clones (average of three plates)” value in data set [1] (w/Radiation (5.4 Gy), 1000 cells initially plated, compound 1 nM) was determined as 121; in data set [1] (w/Radiation (5.4 Gy), 1000 cells initially plated, compound 3 nM), 125; in data set [1] (w/Radiation (5.4 Gy), 1000 cells initially plated, compound 10 nM) it was 121; in data set [1] (w/Radiation (5.4 Gy), 1000 cells initially plated, compound 30 nM), 8; in data set [1] (w/Radiation (5.4 Gy), 1000 cells initially plated, compound 100 nM), 3; in data set [1] (w/o Radiation, 200 cells initially plated, compound 1 nM), 98. For the same molecule, the “No. of MDAH2774 Clones (average of three plates)” value is 96 in data set [1] (w/o Radiation, 200 cells initially plated, compound 3 nM); 110 in data set [1] (w/o Radiation, 200 cells initially plated, compound 10 nM); 35 in data set [1] (w/o Radiation, 200 cells initially plated, compound 30 nM); 8 in data set [1] (w/o Radiation, 200 cells initially plated, compound 100 nM). Moreover, the “cell cycle / growth effect in LoVo cells” value in the data set on LoVo is “blocked growth”. The “effect on cell proliferation in K562 cells” value in data set [2] (24 hours treatment) is recorded as “concentration-dependent decrease of cell proliferation”. Further, the IC50 in data set [2] (Homo sapiens, K562, 24 hours treatment, read-out: IC50 on K562 cell proliferation) is roughly 0.01 µM. Further, the “cell cycle / growth effect in H460 cells” value with H460 is given as “blocked growth”. For the same molecule, the “colony formation inhibition with versus without radiation, DU145” value in the data set on DU145 (prostate cancer) (7.3 Gy, compound 1 to 100 nM) is “the inhibitory effect was greater with radiation”. In addition, the “No. of DU145 Clones (average of three plates)” value turned out to be 118 with DU145 (prostate cancer) (W/o Radiation, 200 cells initially plated, compound 1 nM); 108 with DU145 (prostate cancer) (W/o Radiation, 200 cells initially plated, compound 3 nM); 111 with DU145 (prostate cancer) (W/o Radiation, 200 cells initially plated, compound 10 nM); 100 with DU145 (prostate cancer) (W/o Radiation, 200 cells initially plated, compound 30 nM); 22 in the data set on DU145 (prostate cancer) (W/o Radiation, 200 cells initially plated, compound 100 nM); 117 in the data set on DU145 (prostate cancer) (w/Radiation (7.3 Gy), 1200 cells initially plated, compound 1 nM). Moreover, the “No. of DU145 Clones (average of three plates)” value in the data set with DU145 (prostate cancer) (w/Radiation (7.3 Gy), 1200 cells initially plated, compound 3 nM) came to 100; in the data set with DU145 (prostate cancer) (w/Radiation (7.3 Gy), 1200 cells initially plated, compound 10 nM), 126; with DU145 (prostate cancer) (w/Radiation (7.3 Gy), 1200 cells initially plated, compound 30 nM), 57; with DU145 (prostate cancer) (w/Radiation (7.3 Gy), 1200 cells initially plated, compound 100 nM), 5. Moreover, in the data set with DU145 (prostate cancer) (in the presence or absence of radiation (7.3 Gy)), the “concentration from which marked inhibitory activity against colony formation was shown, DU145” value is no less than 30 nM. In data set [3], the tumor growth inhibition was 72%.

Regarding `COc1cc2c(cc1OC)-c1c(c(Nc3cccc(F)c3)nn1C(=O)CO)C2` [Compound 432, 1-[3-(3-Fluoro-phenylamino)-6,7-dimethoxy-4H-indeno[1,2-c]pyrazol-1-yl]-2-hydroxy-ethanone], in data set [4], the concentration at 0.5 h was determined as 80 nM.

For the origin of these results see US7196110B2, “N-substituted tricyclic 3-aminopyrazoles as inhibitors for the treatment of cell proliferative disorders” (Janssen Phamaceutica N.V., priority 2002, dated 2007).
